Test results taken from patent publication US8227428B2, “Anti-infammatory macrolide” (Glaxo Group Limited, priority 2009, dated 2012).

Assays:
[1] = Stability in buffer solutions pH 2 to pH 8 at 25° C.; format: physicochemical
Description: Stability in buffer solutions pH 2 to pH 8 at 25° C., and in bio-relevant media (SGF pH 1.6, Fasted SIF pH 6.5 and Fed SIF pH 5.0) at 37° C., during 24 hours is monitored. The samples are analysed by LC/MS.
Buffer Solutions and Physiologically Relevant Media Used in Stability Assay:
LC Conditions: Instrument HP1100
Column: Waters XBridge C18, 2.1×50 mm, 3.5 μm
Guard column: Waters XBridge C18, 2.1×10 mm, 3.5 μm
• A) 0.1% HCOOH/H2O • B) 0.1% HCOOH/CH3CN Gradient Timetable: […]
Flow: 0.3 mL/min Column temp.: 25° C. Sample temp.: 25° C. (for stability assay in buffer solutions) • 37° C. (for stability assay in bio-relevant media) Injector volume: 3 μL (without injection program) MS Conditions: Instrument HP MS API-ES, positive ion mode Mass Range: 150-1500 Fragmentor: 100 Gain: 1.0 Treshold: 150 Step size: 0.20 Gas Temperature: 350° C. Drying Gas Flow: 13 L/min Nebulizer Pressure: 35 psig Capillary Voltage Positive 4000 V • Negative 4000 V Sample Preparation: a) For Stability Assay in Buffer Solutions
Compounds are dissolved in CH3CN to produce a 1 mg/mL stock solution. The stock solution is diluted to a concentration of 0.2 mg/mL (1 mL solution in 4 mL buffer) with appropriate buffer to produce a working solution.
Each solution at each pH is then dispatched into vials that are sealed and stored at room temperature in order to be analyzed at the proper time point. Before analysis, pH values of prepared sample solutions are checked and adjusted if neccessary.

[2] = tested on: Lung neutrophilia induced by bacterial lipopolysaccharide (LPS); test: Lung neutrophilia induced by bacterial lipopolysaccharide (LPS) in male BALB/cJ mice; format: in vivo; details: average; single dose 200 mg/kg i.p.; vs LPS challenged untreated animals
Description: For intraperitoneal administration (i.p.) compounds are dissolved in a final concentration of 10 mg/mL. The required amount of compound is first dissolved in dimethylsulfoxide (DMSO, Sigma) and then diluted with 0.5% (w/v) methyl-cellulose so that the final DMSO concentration is 5% (v/v). The obtained solution is applied in a dose volume of 0.2 mL per 10 g of animal. Therefore, the compound dose is 200 mg/kg.
Male BALB/cJ mice (Charles River, France), with an average weight of ˜30 g are randomly grouped (n=8 in testing group, 10 in positive control and 8 in negative control). Mice receive intraperitoneally (i.p.) a single dose of 200 mg/kg of test compound. Two hours after administration, 2 μg of LPS (from Escherichia coli serotype 0111:B4, Sigma), dissolved in sterile PBS in a volume of 60 μL, is intranasally administered to all experimental groups except the negative control group, which receive the same volume of vehicle (PBS). Animals are sacrificed approximately 24 hours after application of LPS in order to obtain bronchioalveolar lavage fluid (BALF), which is used to determine absolute number of cells and the percentage of neutrophils. Results are expressed as percentage decrease in total cell number and number of neutrophils in BALF of treated animals compared to positive control (LPS challenged, but untreated animals).

[3] = In vitro stability in human whole blood; format: in vitro ADME; details: 37° C., 2000 ng/mL, over 24 hours
Description: An in vitro stability study in human whole blood and plasma is carried out over 24 hours at 37° C. Drug-free freshly collected human blood (CPD—citrate-phosphate-dextrose is used for all blood collections as anticoagulant) and plasma are spiked with a previously prepared standard solution of test compound to a final concentration of 2000 ng/mL. For each compound blood and plasma are spiked in duplicate and incubated for 24 hours. Two separate aliquots of blood or plasma (50 μL) are sampled from each incubation mixture at 0, 15, 30, 60, 120, 240 and 1440 minutes. All aliquots are mixed with an equal volume of water (50 μL) and extracted with 300 μL of acetonitrile/methanol (2:1) containing internal standard (roxithromycin). The samples are then vortexed, centrifuged and analysed by LC/MS/MS (MRM mode). Results are expressed as the percentage of compound remaining, expressed as the ratio of analyte/internal standard.

CC[C@H]1OC(=O)[C@H](C)[C@@H](O[C@H]2C[C@@](C)(OC)[C@@H](OC(=O)CN(CC)CC)[C@H](C)O2)[C@H](C)[C@@H](O[C@@H]2O[C@H](C)C[C@H](N(C)C)[C@H]2O)[C@](C)(OC)C[C@@H](C)C(=O)N[C@H](C)[C@@H](O)[C@]1(C)O [Example 3, 4″-O-(2-diethylaminoethanoyl)-6-O-methyl-9a-aza-9a-homoerythromycin A]
99.1 Area %: Percentage (Area %) of the compound observed in buffers ([1]; pH 4, 25° C., 2 h) | Percentage (Area %) of the compound observed in buffers ([1]; pH 4, 25° C., 6 h) | Percentage (Area %) of the compound observed in buffers ([1]; pH 4, 25° C., 22 h)
99.0 Area %: Percentage (Area %) of the compound observed in buffers ([1]; pH 4, 25° C., 4 h)
98.4 Area %: Percentage (Area %) of the compound observed in buffers ([1]; pH 8, 25° C., 18 h)
99.2 Area %: Percentage (Area %) of the compound observed in buffers ([1]; pH 4, 25° C., 8 h) | Percentage (Area %) of the compound observed in buffers ([1]; pH 4, 25° C., 12 h) | Percentage (Area %) of the compound observed in buffers ([1]; pH 4, 25° C., 14 h) | Percentage (Area %) of the compound observed in buffers ([1]; pH 4, 25° C., 18 h) | Percentage (Area %) of the compound observed in buffers ([1]; pH 4, 25° C., 24 h)
99.6 Area %: Percentage (Area %) of the compound observed in buffers ([1]; pH 2, 25° C., 12 h) | Percentage (Area %) of the compound observed in buffers ([1]; pH 2, 25° C., 14 h) | Percentage (Area %) of the compound observed in buffers ([1]; pH 2, 25° C., 18 h) | Percentage (Area %) of the compound observed in buffers ([1]; pH 3, 25° C., 4 h) | Percentage (Area %) of the compound observed in buffers ([1]; pH 3, 25° C., 12 h) | Percentage (Area %) of the compound observed in buffers ([1]; pH 3, 25° C., 20 h)
99.7 Area %: Percentage (Area %) of the compound observed in buffers ([1]; pH 3, 25° C., 18 h) | Percentage (Area %) of the compound observed in buffers ([1]; pH 6, 25° C., 20 h) | Percentage (Area %) of the compound observed in buffers ([1]; pH 6, 25° C., 22 h) | Percentage (Area %) of the compound observed in buffers ([1]; pH 6, 25° C., 24 h) | Percentage (Area %) of the compound observed in buffers ([1]; pH 7, 25° C., 12 h) | Percentage (Area %) of the compound observed in buffers ([1]; pH 7, 25° C., 14 h) | Percentage (Area %) of the compound observed in buffers ([1]; pH 7, 25° C., 22 h) | Percentage (Area %) of the compound observed in buffers ([1]; pH 8, 25° C., 8 h)
showed stability: stability in buffers pH 2 to 8 ([1]; 25° C., during 24 hours)
98.2 Area %: Percentage (Area %) of the compound observed in buffers ([1]; pH 8, 25° C., 22 h) | Percentage (Area %) of the compound observed in buffers ([1]; pH 8, 25° C., 24 h)
98.3 Area %: Percentage (Area %) of the compound observed in buffers ([1]; pH 8, 25° C., 20 h)
100 Area %: Percentage (Area %) of the compound observed in buffers ([1]; pH 2, 25° C., Initial) | Percentage (Area %) of the compound observed in buffers ([1]; pH 3, 25° C., Initial) | Percentage (Area %) of the compound observed in buffers ([1]; pH 4, 25° C., Initial) | Percentage (Area %) of the compound observed in buffers ([1]; pH 5, 25° C., 2 h) | Percentage (Area %) of the compound observed in buffers ([1]; pH 5, 25° C., Initial) | Percentage (Area %) of the compound observed in buffers ([1]; pH 6, 25° C., 2 h) | Percentage (Area %) of the compound observed in buffers ([1]; pH 6, 25° C., 4 h) | Percentage (Area %) of the compound observed in buffers ([1]; pH 6, 25° C., 6 h) | Percentage (Area %) of the compound observed in buffers ([1]; pH 6, 25° C., 8 h) | Percentage (Area %) of the compound observed in buffers ([1]; pH 6, 25° C., Initial) | Percentage (Area %) of the compound observed in buffers ([1]; pH 7, 25° C., 2 h) | Percentage (Area %) of the compound observed in buffers ([1]; pH 7, 25° C., Initial) | Percentage (Area %) of the compound observed in buffers ([1]; pH 8, 25° C., Initial)
more than 79%: inhibition of the number of neutrophils in BALF [2]
99.4 Area %: Percentage (Area %) of the compound observed in buffers ([1]; pH 2, 25° C., 2 h) | Percentage (Area %) of the compound observed in buffers ([1]; pH 3, 25° C., 22 h) | Percentage (Area %) of the compound observed in buffers ([1]; pH 3, 25° C., 24 h) | Percentage (Area %) of the compound observed in buffers ([1]; pH 8, 25° C., 14 h)
stable: stability in whole blood [3]
98.7 Area %: Percentage (Area %) of the compound observed in buffers ([1]; pH 7, 25° C., 24 h)
99.9 Area %: Percentage (Area %) of the compound observed in buffers ([1]; pH 5, 25° C., 4 h) | Percentage (Area %) of the compound observed in buffers ([1]; pH 5, 25° C., 6 h) | Percentage (Area %) of the compound observed in buffers ([1]; pH 5, 25° C., 8 h) | Percentage (Area %) of the compound observed in buffers ([1]; pH 5, 25° C., 12 h) | Percentage (Area %) of the compound observed in buffers ([1]; pH 5, 25° C., 14 h) | Percentage (Area %) of the compound observed in buffers ([1]; pH 5, 25° C., 18 h) | Percentage (Area %) of the compound observed in buffers ([1]; pH 5, 25° C., 22 h) | Percentage (Area %) of the compound observed in buffers ([1]; pH 5, 25° C., 24 h) | Percentage (Area %) of the compound observed in buffers ([1]; pH 6, 25° C., 12 h) | Percentage (Area %) of the compound observed in buffers ([1]; pH 7, 25° C., 4 h) | Percentage (Area %) of the compound observed in buffers ([1]; pH 7, 25° C., 6 h) | Percentage (Area %) of the compound observed in buffers ([1]; pH 7, 25° C., 8 h) | Percentage (Area %) of the compound observed in buffers ([1]; pH 8, 25° C., 2 h) | Percentage (Area %) of the compound observed in buffers ([1]; pH 8, 25° C., 4 h) | Percentage (Area %) of the compound observed in buffers ([1]; pH 8, 25° C., 6 h)
99.8 Area %: Percentage (Area %) of the compound observed in buffers ([1]; pH 3, 25° C., 2 h) | Percentage (Area %) of the compound observed in buffers ([1]; pH 3, 25° C., 8 h) | Percentage (Area %) of the compound observed in buffers ([1]; pH 3, 25° C., 14 h) | Percentage (Area %) of the compound observed in buffers ([1]; pH 5, 25° C., 20 h) | Percentage (Area %) of the compound observed in buffers ([1]; pH 6, 25° C., 14 h) | Percentage (Area %) of the compound observed in buffers ([1]; pH 7, 25° C., 18 h)
99.5 Area %: Percentage (Area %) of the compound observed in buffers ([1]; pH 2, 25° C., 4 h) | Percentage (Area %) of the compound observed in buffers ([1]; pH 2, 25° C., 6 h) | Percentage (Area %) of the compound observed in buffers ([1]; pH 2, 25° C., 8 h) | Percentage (Area %) of the compound observed in buffers ([1]; pH 2, 25° C., 20 h) | Percentage (Area %) of the compound observed in buffers ([1]; pH 2, 25° C., 22 h) | Percentage (Area %) of the compound observed in buffers ([1]; pH 2, 25° C., 24 h) | Percentage (Area %) of the compound observed in buffers ([1]; pH 3, 25° C., 6 h) | Percentage (Area %) of the compound observed in buffers ([1]; pH 8, 25° C., 12 h)
98.8 Area %: Percentage (Area %) of the compound observed in buffers ([1]; pH 7, 25° C., 20 h)
98.9 Area %: Percentage (Area %) of the compound observed in buffers ([1]; pH 4, 25° C., 20 h)
